Laboratory results as given in patent US7915282B2, “C2-phenyl-substituted cyclic keto-enols used as pesticides and herbicides” (Bayer Aktiengesellschaft, priority 2000, dated 2011).

How the values were obtained:
Format in all cases: in vivo
Cassia = experiment: Post-emergence test; details: 125 g ai/ha, after three weeks
Description: (§1) [table] To produce a suitable preparation of active compound, 1 part by weight of active compound is mixed with the stated amount of solvent, the stated amount of emulsifier is added and the concentrate is diluted with water to the desired concentration. Test plants of a height of 5-15 cm are sprayed with the preparation of active compound such that the particular amounts of active compound desired are applied per unit area. The concentration of the spray liquor is chosen such that the particular amount of active compound desired is applied in 1000 l of water/ha. After three weeks, the degree of damage to the plants is rated in % damage in comparison to the development of the untreated control. The figures denote: [table]

Solanum = experiment: Post-emergence test; details: 125 g ai/ha, after three weeks
Description: as §1

Wheat [1] = experiment: Post-emergence test; details: 125 g ai/ha, after three weeks
Description: as §1

Lolium [2] = experiment: Post-emergence test; details: 125 g ai/ha, after three weeks
Description: as §1

Viola = experiment: Post-emergence test; details: 125 g ai/ha, after three weeks
Description: as §1

[3] = test system: greenhouse red spider mite (Tetranychus urticae); experiment: Tetranychus test (OP-resistant/dip treatment); details: active compound concentration of 1000 ppm; after 7 days; infested bean plants dipped
Description: [table] To produce a suitable preparation of active compound, 1 part by weight of active compound is mixed with the stated amounts of solvent and emulsifier, and the concentrate is diluted with emulsifier-containing water to the desired concentration. Bean plants (Phaseolus vulgaris) which are heavily infested by all stages of the greenhouse red spider mite (Tetranychus urticae) are dipped into a preparation of active compound of the desired concentration. After the desired period of time, the effect in % is determined. 100% means that all spider mites have been killed; 0% means that none of the spider mites have been killed.

white fly Bemisia tabaci = experiment: Bemisia test; details: active compound concentration of 1000 ppm; after 10 days; infested cotton plants dipped
Description: [table] To produce a suitable preparation of active compound, 1 part by weight of active compound is mixed with the stated amounts of solvent and emulsifier, and the concentrate is diluted with emulsifier-containing water to the desired concentrations. Cotton plants (Gossypium hirsutum) which are infested by eggs, larvae and pupae of the white fly Bemisia tabaci are dipped into a preparation of active compound of the desired concentration. After the desired period of time, the kill in % is determined. 100% means that all animals have been killed; 0% means that none of the animals have been killed.

[4] = test system: caterpillars of the army worm (Spodoptera frugiperda); experiment: Spodoptera frugiperda test; details: active compound concentration of 1000 ppm; after 7 days; cabbage leaves dipped
Description: (§2) [table] To produce a suitable preparation of active compound, 1 part by weight of active compound is mixed with the stated amounts of solvent and emulsifier, and the concentrate is diluted with emulsifier-containing water to the desired concentration. Cabbage leaves (Brassica oleracea) are treated by being dipped into the preparation of active compound of the desired concentration and are populated with caterpillars of the army worm (Spodoptera frugiperda) while the leaves are still moist. After the desired period of time, the kill in % is determined. 100% means that all caterpillars have been killed; 0% means that none of the caterpillars have been killed.

[5] = test system: larvae of the mustard beetle (Phaedon cochleariae); experiment: Phaedon larvae test; details: active compound concentration of 1000 ppm; after 7 days; cabbage leaves dipped
Description: as §2, with “with larvae” for “with caterpillars”, “the mustard beetle (Phaedon cochleariae)” for “the army worm (Spodoptera frugiperda)”, “all beetle larvae” for “all caterpillars”, “the beetle larvae” for “the caterpillars”

Setaria [6] = experiment: Post-emergence test; details: after three weeks
Description: as §1

Sugar beet [7] = experiment: Post-emergence test; details: after three weeks
Description: as §1

Digitaria [8] = experiment: Post-emergence test; details: after three weeks
Description: as §1

Avena fatua = experiment: Post-emergence test; details: after three weeks
Description: as §1

Alopecurus [9] = experiment: Post-emergence test; details: after three weeks
Description: as §1

Ipomoea = experiment: Post-emergence test; details: 125 g ai/ha, after three weeks
Description: as §1

Setaria [10] = experiment: Pre-emergence test; details: after three weeks
Description: (§3) [table] To produce a suitable preparation of active compound, 1 part by weight of active compound is mixed with the stated amount of solvent, the stated amount emulsifier is added and the concentrate is diluted with water to the desired concentration. Seeds of the test plants are sown in normal soil. After about 24 hours, the soil is sprayed with the preparation of active compound such that the particular amounts of active compound desired are applied per unit area. The concentration of the spray liquor is chosen such that the particular amounts of active compound desired are applied in 1000 l of water/ha. After three weeks, the degree of damage to the plants is rated in % damage in comparison to the development of the untreated controls. The figures denote: [table]

Sugar beet [11] = experiment: Pre-emergence test; details: 125 g ai/ha, after three weeks
Description: as §3

Digitaria [12] = experiment: Pre-emergence test; details: 125 g ai/ha, after three weeks
Description: as §3

Soya bean [13] = experiment: Pre-emergence test; details: after three weeks
Description: as §3

Lolium [14] = experiment: Pre-emergence test; details: after three weeks
Description: as §3

Alopecurus [15] = experiment: Pre-emergence test; details: after three weeks
Description: as §3

Veronica = experiment: Pre-emergence test; details: 125 g ai/ha, after three weeks
Description: as §3

Sorghum = experiment: Post-emergence test; details: 125 g ai/ha, after three weeks
Description: as §1

Soya bean [16] = experiment: Post-emergence test; details: 125 g ai/ha, after three weeks
Description: as §1

Galium = experiment: Post-emergence test; details: 125 g ai/ha, after three weeks
Description: as §1

Echinochloa = experiment: Pre-emergence test; details: 60 g ai/ha, after three weeks
Description: as §3

Chenopodium = experiment: Pre-emergence test; details: 60 g ai/ha, after three weeks
Description: as §3

Wheat [17] = experiment: Pre-emergence test; details: 60 g ai/ha, after three weeks
Description: as §3

Polygonum = experiment: Post-emergence test; details: 60 g ai/ha, after three weeks
Description: as §1

Abutilo = experiment: Pre-emergence test; details: 125 g ai/ha, after three weeks
Description: as §3

Cyperus = experiment: Pre-emergence test; details: 125 g ai/ha, after three weeks
Description: as §3

Bromus = experiment: Pre-emergence test; details: 125 g ai/ha, after three weeks
Description: as §3

[18] = test system: peach aphids (Myzus persicae); experiment: Myzus test; details: active compound concentration of 1000 ppm; after 6 days; infested cabbage leaves dipped
Description: as §2, with “oleracea) which are heavily infested by the peach aphids (Myzus persicae)” for “oleracea)”, “concentration.” for “concentration and are populated with caterpillars of the army worm (Spodoptera frugiperda) while the leaves are still moist.”, “aphids” for “caterpillars”

Oilseed rape = experiment: Post-emergence test; details: 125 g ai/ha, after three weeks
Description: as §1

[19] = test system: green rice leaf hopper (Nephotettix cincticeps); experiment: Nephotettix test; details: active compound concentration of 1000 ppm; after 6 days; rice seedlings dipped
Description: [table] To produce a suitable preparation of active compound, 1 part by weight of active compound is mixed with the stated amounts of solvent and emulsifier, and the concentrate is diluted with emulsifier-containing, water to the desired concentration. Rice seedlings (Oryza sativa) are treated by being dipped into the preparation of active compound of the desired concentrated and are populated with the green rice leaf hopper (Nephotettix cincticeps) while the leaves are still moist. After the desired period of time, the kill in % is determined. 100% means that all leaf hoppers have been killed; 0% means that none of the leaf hoppers have been killed.

| SMILES | % damage Lolium (Lolium [2]) [%] | kill in % [3] [%] | kill in % [5] [%] | % damage Setaria (Setaria [6]; 125 g ai/ha) [%] | % damage Sugar beet (Sugar beet [7]; 125 g ai/ha) [%] | % damage Digitaria (Digitaria [8]; 125 g ai/ha) [%] | % damage Setaria (Setaria [10]; 125 g ai/ha) [%] | % damage Digitaria (Digitaria [12]) [%] | % damage Soya bean (Soya bean [13]; 125 g ai/ha) [%] | % damage Lolium (Lolium [14]; 125 g ai/ha) [%] | % damage Alopecurus (Alopecurus [15]; 125 g ai/ha) [%] | % damage Sorghum (Sorghum) [%] | % damage Galium (Galium) [%] | further results |
| --- | --- | --- | --- | --- | --- | --- | --- | --- | --- | --- | --- | --- | --- | --- |
| CCc1cc(C)cc(C)c1C1=C(OC(=O)C(C)(C)C)C2(CCC(OC)CC2)OC1=O (centres unmarked) [Example I-2-b-10] | 80 | 100 |  |  |  |  |  |  |  |  |  |  |  | % damage Cassia (Cassia): 95%; % damage Solanum (Solanum): 80%; % damage Wheat (Wheat [1]): 10%; % damage Viola (Viola): 90%; kill in % (white fly Bemisia tabaci): 100% |
| CCc1cc(C)cc(C)c1C1=C(O)C2(CCCCC2)OC1=O [Example I-2-a-3] |  |  | 100 |  |  |  |  |  |  |  |  |  |  | kill in % [4]: 100% |
| C#Cc1cc(C)c(C2=C(O)C3(CCC(OC)CC3)NC2=O)c(C)c1 (centres unmarked) [Example I-1-a-21] | 95 | 100 | 100 | 99 | 0 | 100 | 100 | 100 | 0 | 100 | 100 |  |  | % damage Avena fatua (Avena fatua; 125 g ai/ha): 90%; % damage Alopecurus (Alopecurus [9]; 125 g ai/ha): 100%; % damage Ipomoea (Ipomoea): 70%; % damage Sugar beet (Sugar beet [11]): 0%; % damage Veronica (Veronica): 100% |
| CCc1cc(CC)c(C2=C(O)C3(CCC(C)CC3)NC2=O)c(CC)c1 (centres unmarked) [Example I-1-a-5] |  |  |  | 100 |  | 90 |  |  |  |  |  | 95 | 80 | % damage Soya bean (Soya bean [16]): 10%; % damage Setaria (Setaria [10]; 60 g ai/ha): 100%; % damage Echinochloa (Echinochloa): 100%; % damage Chenopodium (Chenopodium): 70%; % damage Wheat (Wheat [17]): 0%; % damage Soya bean (Soya bean [13]; 60 g ai/ha): 0%; % damage Lolium (Lolium [14]; 60 g ai/ha): 100%; % damage Alopecurus (Alopecurus [15]; 60 g ai/ha): 100% |
| C#Cc1cc(C)c(C2=C(OC(=O)OCC)C3(CCC(OC)CC3)NC2=O)c(C)c1 (centres unmarked) [Example I-1-c-4] |  | 100 |  |  |  |  | 100 | 100 | 20 | 100 | 95 |  |  | % damage Setaria (Setaria [6]; 60 g ai/ha): 100%; % damage Sugar beet (Sugar beet [7]; 60 g ai/ha): 10%; % damage Digitaria (Digitaria [8]; 60 g ai/ha): 95%; % damage Polygonum (Polygonum): 70%; % damage Avena fatua (Avena fatua; 60 g ai/ha): 90%; % damage Alopecurus (Alopecurus [9]; 60 g ai/ha): 90%; % damage Abutilo (Abutilo): 70%; % damage Cyperus (Cyperus): 100%; % damage Bromus (Bromus): 100%; kill in % [18]: 100% |
| CCc1cc(C)c(C2=C(O)C3(CCC(C)CC3)NC2=O)c(CC)c1 (centres unmarked) [Example I-1-a-2] | 70 |  | 100 | 95 | 0 | 80 |  |  |  |  |  | 80 | 80 | % damage Oilseed rape (Oilseed rape): 0%; kill in % [19]: 100% |
